Results published in patent US11275071B2, “Sensor dyes for real-time sensing of metal ions in aqueous environments” (UWM Research Foundation, Inc., priority 2015, dated 2022).
Entries after “also recorded” stand apart in the source; their conditions may differ. Where two headings read alike, the source gives them in different places.

Key:
[1] = Response of QAR and PAR to metal ions at pH 7 (absorbance spectrum, colour); format: binding
Description: (§1) The response of QAR to different metal ions was measured to determine its selectivity and compared to another sensor (PAR), which has a similar structure. Samples were prepared with different metal standards at pH 7, and the absorbance spectrum of each sample was recorded (FIG. 6). Also, photographs of the samples are provided below to allow for a visual comparison (FIG. 7).
(§2) The spectra of QAR were compared to the spectrum of the free dyes, and the general response of QAR at pH 7 can be described as follows: […]

[2] = Protonation states of metal-QAR complexes; format: physicochemical; conditions: M(QAR)2H2 decomposition under acidic conditions, midpoint of species distribution curve
Description: (§3) The dissociation constant under acidic conditions and the pKA for the para-hydroxy group on the metal-QAR complexes was determined. A set of samples containing QAR and a single metal standard, were prepared in a pH buffer containing 2 mM Triton X-100 surfactant. […] The absorption spectrum of each sample was recorded with the Perkin-Elmer Lambda 650 spectrophotometer.
(§4) Analysis was performed in ReactLab Equilibria. The protonation of the para-hydroxy groups was modelled using the first reaction. Here, the pH micro-constants (stepwise protonation of each dye molecule in the complex) could not be resolved, so the two para-hydroxy groups in the complex were treated as both protonated or both deprotonated in the model. The decomposition of the complex under acidic conditions was modelled using the second reaction. M(QAR)2^2−+2H^+→M(QAR)2H2 M(QAR)2H2+2H^+→[…]+2H3QAR^+
The total uncertainty was estimated from the measurements involved in the experiment using rules of conventional error propagation (TABLE 7).

[3] = Response of QAR and PAR to metal ions at pH 7, overall comparison; format: binding
Description: as §1, §2

[4] = Formation and dissociation constants of QAR, titration with metal ion standard at pH 8.8; format: binding; conditions: for KF / KD: 1:2 complex; for KD: computed from formation constant; for log KF: M^2+ + 2HQAR^− → M(QAR)2^2− + 2H^+; for Kd: read-out: square root over (KD)
Description: The formation constants (KF) were determined for QAR and different metals. The relative binding affinities characterized the selectivity of the sensor, i.e. the sensor's preference for binding one metal over another. Also, the corresponding dissociation constants (KD) were computed from the formation constants. This metric yielded the lower performance limit of the sensor that is thermodynamically possible (for a given set of conditions), and it can provide the practical operating range of the sensor.
The absorbance spectra were recorded using a Perkin-Elmer Lambda 650 spectrophotometer while a QAR solution was titrated with a metal ion standard. Scout titrations were performed to obtain an estimate range for the KD. Then, the titration was performed with a sufficiently low initial dye concentration (approximately equal to the KD) for proper determination. Also, measurements were made using 10 cm longpath cuvettes. The increased pathlength compensated for the reduced dye concentration so measurements were made within the instrumental limitations (i.e. absorbance values greater than 0.05 absorbance units).
The dye solution was pH-buffered at such that only one protonated form of the free dye and complex is present. […] At pH 8.8, the following expression describes the metal-dye complex formation where HQAR^− predominates as the free dye and M(QAR)2^2 predominates as the metal complex, and minimal formation of metal hydroxides is expected. M^2++2HQAR^−→M(QAR)2^2−+2H^+
The data was analyzed in ReactLab Equilibria to determine the formation constant using the above model, and initial concentrations of HQAR and the respective metal. This software performs regression with the entire spectrum to calculate the formation constants specified in the model. Analysis was performed several times with different initial “guesses” for parameter values to ensure the algorithm yielded reproducible results.
The corresponding K values were calculated and are shown in the table below where the standard error from regression is given as the uncertainty values. The accuracy of the values is limited for cobalt and copper because the absorbance changes were too steep to properly capture the hyperbolic nature of the curve. And, the experimental conditions could not be adjusted to yield the same level of instrumental sensitivity and accuracy as the other metals. However, a relative comparison of the binding affinities is valid.

[5] = Protonation states of free QAR, pKA by absorption and ReactLab Equilibria (Example 29); format: physicochemical; conditions: free dye
Description: QAR has three protonation sites: The heterocyclic nitrogen in the quinoline moiety, and the para-hydroxyl group and the ortho-hydroxyl group in the resorcinol ring. The ortho-hydroxyl group is involved in binding with the metal.
The acid dissociation constants (pKA) and spectral profiles were determined for QAR. […] The data was analyzed using ReactLab Equilibria (JPlus Consulting Pty Ltd, Australia) to determine the resulting pKA values. QAR has three protonation sites, so four species were used for the analysis model. The pKA values were assigned using values from well-known molecules with a similar structure.
Error analysis was performed using the measurement uncertainties (pH meter and probe, temperature, etc.) and the conventional rules of error propagation. […] The total uncertainty was estimated from the error analysis (TABLE 5).

[6] = Decomposition of metal-QAR complexes under acidic conditions, overall; format: physicochemical
Description: as §3, §4
Decomposition of the metal-QAR complexes occurs below pH 3. The dissociation constant is different for each metal. For example, copper has the highest resistance and zinc has the lowest resistance to decomplexation under acidic conditions. Also, this trend [Cu(II)>Co(II)>Ni(II)>Zn(II)] matches the trend in the binding affinities, and the two effects may be related to the specific interactions that occur in the binding of each metal. […]

[7] = accuracy limited, with Co(II) ion
[8] = accuracy limited, with Cu(II) ion

Oc1ccc(N=Nc2ccccn2)c(O)c1 [PAR, 4-(2-pyridylazo)resorcinol, reference compound]
response to Ca(II) (spectrum compared to free dye, colour of complex) [1]: did not undergo a spectral change | response to Cd(II) (spectrum compared to free dye, colour of complex) [1]: orange complexes | response to Co(II) (spectrum compared to free dye, colour of complex) [1]: magenta complex | response to Cu(II) (spectrum compared to free dye, colour of complex) [1]: magenta complex | response to Fe(III) (spectrum compared to free dye, colour of complex) [1]: magenta complex; also recorded: Aggregation occurs | response to Hg(II) (spectrum compared to free dye, colour of complex) [1]: brown, globular suspension | response to K(I) (spectrum compared to free dye, colour of complex) [1]: did not undergo a spectral change | response to Mg(II) (spectrum compared to free dye, colour of complex) [1]: did not undergo a spectral change | response to Na(I) (spectrum compared to free dye, colour of complex) [1]: did not undergo a spectral change | response to Ni(II) (spectrum compared to free dye, colour of complex) [1]: orange complexes | response to Pb(II) (spectrum compared to free dye, colour of complex) [1]: magenta complex | response to Zn(II) (spectrum compared to free dye, colour of complex) [1]: orange complexes

Oc1ccc(N=Nc2cccc3cccnc23)c(O)c1 [QAR, 4-(quinolin-8-yldiazenyl)benzene-1,3-diol]
Acidic Dissociation ([2]; Co(II)-QAR complex): 1.593 | Acidic Dissociation ([2]; Cu(II)-QAR complex): 0.635 | Acidic Dissociation ([2]; Ni(II)-QAR complex): 2.455 | Acidic Dissociation ([2]; Zn(II)-QAR complex): 2.558 | binding selectivity compared with PAR [3]: higher binding selectivity | spectral sensitivity compared with PAR [3]: higher spectral sensitivity | KF [4, 7]: (1.86 ± 0.03) × 10^13 M^−2 | KF [4, 8]: (1.85 ± 0.40) × 10^16 M^−2 | KD [4, 7]: (5.30 ± 0.10) × 10^−14 M^2 | KD [4, 8]: (5.40 ± 1.15) × 10^−17 M^2 | KD ([4]; with Hg(II) ion): (1.03 ± 0.04) × 10^−13 M^2 | KD ([4]; with Ni(II) ion): (2.66 ± 0.06) × 10^−13 M^2 | KD ([4]; with Zn(II) ion): (3.24 ± 0.03) × 10^−13 M^2 | KF ([4]; with Hg(II) ion): (9.68 ± 0.45) × 10^12 M^−2 | KF ([4]; with Ni(II) ion): (3.76 ± 0.09) × 10^12 M^−2 | KF ([4]; with Zn(II) ion): (3.09 ± 0.05) × 10^12 M^−2 | log KF [4, 8]: 16.268 M^−2 | log KF ([4]; with Hg(II) ion): 12.986 M^−2 | log KF ([4]; with Ni(II) ion): 12.575 M^−2 | log KF ([4]; with Zn(II) ion): 12.490 M^−2 | Kd [4, 7]: 230 nM | Kd [4, 8]: 7.35 nM | Kd ([4]; with Hg(II) ion): 321 nM | Kd ([4]; with Ni(II) ion): 516 nM | Kd ([4]; with Zn(II) ion): 569 nM | pKa ([5]; site Quinoline N): 2.42 | pKa ([5]; site o-OH): 13 | pKA ([5]; site p-OH): 6.539 | pKa ([5]; site p-OH): 6.5 | trend of resistance to decomplexation under acidic conditions [6]: Cu(II)>Co(II)>Ni(II)>Zn(II) | response to Al(III) (spectrum compared to free dye, colour of complex) [1]: Weakly Sensitive | response to Ca(II) (spectrum compared to free dye, colour of complex) [1]: Insensitive; also recorded: did not undergo a spectral change | response to Cd(II) (spectrum compared to free dye, colour of complex) [1]: Weakly Sensitive | response to Co(II) (spectrum compared to free dye, colour of complex) [1]: Strongly Sensitive; also recorded: magenta complex | response to Cr(III) (spectrum compared to free dye, colour of complex) [1]: Insensitive | response to Cu(II) (spectrum compared to free dye, colour of complex) [1]: Strongly Sensitive; also recorded: orange complex | response to Fe(III) (spectrum compared to free dye, colour of complex) [1]: Severe aggregation; also recorded: does not appreciably complex; also recorded: Aggregation occurs | response to Hg(II) (spectrum compared to free dye, colour of complex) [1]: transparent complex | response to K(I) (spectrum compared to free dye, colour of complex) [1]: Insensitive; also recorded: did not undergo a spectral change | response to Mg(II) (spectrum compared to free dye, colour of complex) [1]: Insensitive; also recorded: did not undergo a spectral change | response to Mn(II) (spectrum compared to free dye, colour of complex) [1]: Weakly Sensitive; also recorded: does not appreciably complex | response to Na(I) (spectrum compared to free dye, colour of complex) [1]: Insensitive; also recorded: did not undergo a spectral change | response to Ni(II) (spectrum compared to free dye, colour of complex) [1]: Strongly Sensitive; also recorded: orange complex | response to Pb(II) (spectrum compared to free dye, colour of complex) [1]: Insensitive; also recorded: does not appreciably complex | response to Sn(II) (spectrum compared to free dye, colour of complex) [1]: Insensitive; also recorded: does not appreciably complex | response to Zn(II) (spectrum compared to free dye, colour of complex) [1]: Strongly Sensitive; also recorded: orange complex
